Patent publication US12318449B2 (Rutgers, The State University of New Jersey, priority 2012, dated 2025)

Assays:
[1] = tested on: C8161 human melanoma cells; assay: Cell cycle analysis (propidium iodide flow cytometry); assay type: cell-based; conditions: for Sub G1: 8 Gy, 25 uM riluzole, average of 3 experiments
Experimental: Cell pellets were fixed by drop-wise addition of ice-cold 70% ethanol and incubated overnight at 4° C. Fixed cells were washed twice with ice-cold PBS and resuspended in […] PBS. […] The experiment was repeated 3 times.

D3-mGRM1 cells = assay: Immunofluorescence for 53BP1 and γ-H2AX foci in apoptosis-deficient cells; assay type: cell-based, mouse; conditions: treated for various time points up to 24 hours
From the text: (§1) These treated cells were stained with γ-H2AX and 53BP1, both known to localize at sites of DNA double stranded breaks.

D3-vec cells = assay: as above; assay type: cell-based, mouse; conditions: empty vector controls; treated for various time points up to 24 hours
From the text: as §1

[2] = tested on: C8161 hGRM1-positive human melanoma cells; conditions: riluzole plus irradiation (2 or 4 Gy) compared with irradiation alone
Experimental: Both sets of cells were irradiated at 2 or 4 Gy. Lysates were made at 24, 48, or 72 hours after irradiation. Protein lysates were prepared by washing cells with PBS, adding extraction buffer [50 mmol/L Tris, 150 mmol/L NaCl, 1 mmol/L EDTA (pH 8.0)], 1% NP40, 5% glycerol, 1 mmol/L Dithiothreitol, complete protease inhibitor cocktail (Roche), and phosphatase inhibitors I and II (Sigma). The samples were resolved in 10% gels (Bio-Rad), after which they were transferred onto nitrocellulose membranes. Membranes were blocked with 5% milk and 1% bovine serum albumin and then probed with antibodies against PARP and cleaved caspase-3. The same blot was probed with alpha-tubulin to show equal loading.
Cells were either treated with IR at 2 Gy (2) or 4 GY (4) or not treated (0). Lysates were made immediately after IR or at 24 hours after IR and probed with anti-PARP and anticleaved PARP antibodies to assess apoptotic cells. The same blot was probed with a-tubulin to show equal loading.

[3] = tested on: hGRM1-positive UACC903 human melanoma cells; conditions: riluzole for 24 hours, then ionizing radiation; PE=19%
Experimental: (§2) hGRM1-expressing C8161 [wild type (wt) for RAS and BRAF] and UACC903 (wt for RAS, mutated B-RAF, V600E) human melanoma cell line and hGRM1-negative melanoma cell line UACC930 (wt for RAS, mutated B-RAF, V600E), were obtained from Dr. Mary J. C. Hendrix (Children's Memorial Research Center, Chicago, IL) and Dr. Jeffrey M. Trent (Translational Genomics Research Center, Phoenix, AZ), respectively. Cells were cultured in monolayer at 37° C. in a 5% CO2 humidified incubator, in RPMI (InVitrogen) supplemented with 10% fetal bovine serum (Sigma).
(§3) Cells were trypsinized for retrieval and plated on 100-mm plates and allowed to attach overnight for 20 hours. […] Cells were irradiated by a Gamma Cell 40 Exactor (MDS Nordion) irradiator and then incubated overnight (20 hours). Drug was aspirated and culture media replaced at 20 hours. Plates were then monitored for 10 to 21 days and stained with crystal violet for visual counting. Colonies which contained more than 50 cells were scored as clonogenic survivors.
(§4) All clonogenic assays and cell cycle analyses experiments were repeated 3 times and the triplicate results are shown.

[4] = tested on: hGRM1-positive C8161 human melanoma cells; conditions: riluzole for 24 hours, then ionizing radiation; PE=12%
Experimental: as §2, §3, §4

LN229 cell line = assay: Western immunoblot for cleaved PARP; assay type: cell-based; conditions: experiments repeated as for U87MG
LN229 cells = assay: ROS measurement by flow cytometry (2′,7′-dichlorodihydrofluorescein diacetate); assay type: cell-based; conditions: 10 uM riluzole for various time periods versus vehicle
Experimental: (§5) The cells were incubated with 2′,7′-dichlorodihydrofluorescein diacetate (Sigma) for 20 min at 37 deg.

U87MG cells = assay: as above; assay type: cell-based; conditions: 10 uM riluzole for various time periods versus vehicle
Experimental: as §5

U118MG cell line = assay: Western immunoblot for cleaved PARP; assay type: cell-based; conditions: experiments repeated as for U87MG
glioma cells = assay: γ-H2AX Western blot and γ-H2AX/53BP1 immunofluorescence; assay type: cell-based
C8161 xenografts [5] = tested on: C8161 xenografts
Experimental: Immunodeficient nude mice were purchased from Taconic. C8161 cells were injected into flanks bilaterally at 10^6 cells per site.

C8161 xenografts [6] = assay: Murine xenograft model, cleaved caspase-3 immunohistochemistry; assay type: in vivo, nude mice
Experimental: hGRM-positive C8161 cells (1×10^6) were injected into the flanks of 6-week-old nude mice (Taconic). […] At 24, 48, and 72 hours after the second dose of irradiation, mice in each group were sacrificed and tumor samples were removed. Half of the samples were snap-frozen for further molecular studies, and the other half was fixed in formalin for histologic analysis. The antibody to activated caspase-3 was utilized to visualize apoptotic cells. The average number of apoptotic cells per tumor was calculated by counting the apoptotic cells in 10 random highpowered fields.
Cleaved caspase-3 immunohistochemistry. Immunodeficient nude mice were purchased from Taconic. C8161 cells were injected into flanks bilaterally at 10^6 cells per site. Tumor size was measured with a vernier caliper. When tumor volumes reached 6 to 10 mm^3 the mice were randomly grouped into various treatments. Each treatment group consisted of 10 mice. […] At 24, 48, and 72 hours after the second dose of irradiation, mice in each group were sacrificed and tumor samples were removed. Half of the samples were snap-frozen for further molecular studies, and the other half was fixed in formalin for histologic analysis. The antibody to activated caspase-3 was utilized to visualize apoptotic cells.

U87MG glioma cells = assay: Western immunoblot for cleaved PARP; assay type: cell-based; conditions: riluzole 10, 25 or 50 μM for 4 days versus NT or vehicle

## Nc1nc2ccc(OC(F)(F)F)cc2s1 [Riluzole, riluzole]
[1]; Radiation followed by Riluzole
  Sub G1: 24.91
[1]; Riluzole followed by Radiation
  Sub G1: 3.59
[1]; cells treated with riluzole prior to irradiation
  G2/M fraction: clear spike in the G2/M fraction
[1]; reverse sequence (irradiation before riluzole)
  G2/M fraction: no such effect
D3-mGRM1 cells
  53BP1 and γ-H2AX foci (DNA double stranded breaks): induction of clear nuclear 53BP1 and γ-H2AX foci
D3-vec cells
  53BP1 and γ-H2AX foci (DNA double stranded breaks): not vector controls
[2]
  levels of cleaved PARP: further augmented levels of cleaved PARP
[3]
  dose-modifying factor (DMF): 1.30
[4]
  dose-modifying factor (DMF): 1.48
LN229 cell line
  levels of cleaved PARP: identical results
LN229 cells
  ROS (oxidation of fluorochrome fluorescence): enhanced ROS
U87MG cells
  ROS (oxidation of fluorochrome fluorescence): enhanced ROS
U118MG cell line
  levels of cleaved PARP: identical results
Glioma cells
  co-localization of γ-H2AX and 53BP1 (immunofluorescence): Co-localization was demonstrated
Glioma cells; cell lysates
  γ-H2AX Western blot (DNA damage): caused DNA damage
C8161 xenografts [5]; riluzole (10 mg/kg) plus IR, 25 days of treatment
  effect of the combination on growth of xenografts: at least an additive effect
C8161 xenografts [5]; xenograft harvests, riluzole plus irradiation
  DNA damage as measured by foci of gH2AX on immunohistochemistry: markedly enhanced DNA damage
C8161 xenografts [6]; riluzole 10 mg/kg oral gavage plus 2 x 4 Gy irradiation versus irradiation alone or control groups, P<0.001
  number of apoptotic tumor cells (immunohistochemistry): significant increase
C8161 xenografts [6]; riluzole plus irradiation versus riluzole alone, 24- and 48-hour time points, P<0.01
  number of apoptotic tumor cells (immunohistochemistry): significant difference
U87MG glioma cells
  levels of cleaved PARP: higher levels of cleaved PARP

## C=C1C[C@@H]2COC(=O)[C@]2(Cc2ccc3ccccc3c2)C1 [BAY 36-7620]
[1]; treatment of C8161 cells with the compound
  G2/M synchronization: no G2/M synchronization
